One compound from patent US11597738B2 (Mindset Pharma Inc., priority 2020, dated 2023) can be followed below.

Series [1] is described as follows: In vivo pharmacokinetics in rats. The following applies: male Sprague-Dawley rats. As to the method:
(§1) Male C57BL/6 mice (25-30 g) and male Sprague-Dawley rats (250-325 g) from Charles River Labs were acclimatized for a minimum of 5 days prior to dosing. Body weights were recorded on the day of dosing.
(§2) Animals dosed p.o. were deprived of food overnight and fed ˜2 h following dosing.
(§3) Formulations were administered intravenously (i.v.) via the tail vein or orally (p.o.) by gavage with disposable feeding needles.
(§4) Serial blood samples were collected via tail snip. Terminal blood samples were collected under isoflurane anesthesia by cardiac puncture.
(§5) All blood samples were transferred into K2EDTA tubes on wet ice and centrifuged within 5 min (3200×g for 5 min at 4° C.) to obtain plasma. Plasma was stored at −80° C. until analysis.
(§6) Mouse or Rat Plasma, as Applicable.
(§7) AB Sciex QTRAP 4000 or 6500 MS/MS system equipped with an LC system with a binary pump, a solvent degasser, a thermostatted column compartment and a multiplate autosampler. i. Analysis software: Phoenix® WinNonlin® 8.2 (Pharsight, Certara, Mountainview, Calif.) ii. Analysis methods: non-compartmental analysis, linear up/log down trapezoidal rule iii. PK parameters: C0, t1/2, AUC0-tlast. AUC0-∞, CL, Vss, MRT, tmax(po), Cmax(po), F, as appropriate

Series [2] deals with head-twitch response (HTR) in male C57BL6 mice. Put plainly: Mouse head twitch (HTR). Format: in vivo, C57BL/6J mice. The conditions noted are these: 0.3-10 mg/kg SC, measured over 1 h. As to the method:
Data is expressed as mean+SEM. The induction of head twitches elicited by 5-HT2A receptor agonists is believed to represent a behavioural proxy of their psychedelic effects.
The effect of different doses of exemplary compounds of Formula I were evaluated on head-twitch response (HTR) as a behavior-based model of psychedelic activity.
Male, C57BL/6J mice (body weight range 20-30 g) were dosed with the appropriate dose of test article, and following a 1-minute pre-treatment time, placed in individual observation chambers. Animals were visually assessed for the incidence head twitches continuously over a 1 hr period. Head twitches were defined as a rapid jerk of the head which was not elicited by an external tactile stimulus (Corne and Pickering, Psychopharmacologia, 1967, 11(1): 65-78). Each head twitch was individually counted by a trained observer, and the data expressed as the mean+SEM of 6-10 mice per group. Mice were used in a single experiment only.

Series [3] can be described thus: In vivo pharmacokinetics in mice. The following applies: male C57BL/6 mice. As to the method: as §1, §2, §3, §4, §5, §6, §7

As to `[2H]C([2H])([2H])N(C([2H])([2H])[2H])C([2H])([2H])C([2H])([2H])c1c[nH]c2cccc(O)c12` [Compound I-45, 3-(2-(bis(methyl-d3)amino)ethyl-1,1,2,2-d4)-1H-indol-4-ol], the AUC0-inf/Dose in series [1] (i.v., 0.3 mg/kg) came to 181 ± 30.8 kg·ng·h/mL/mg; in series [1] (p.o.), 181 ± 14.6 kg·ng·h/mL/mg; in series [1] (s.c., 0.3 mg/kg), 120 ± 29.0 kg·ng·h/mL/mg; in series [3] (i.v., 1 mg/kg), 181 ± 30.8 kg·ng·h/mL/mg; in series [3] (p.o., 10 mg/kg), 79.5 ± 12.1 kg·ng·h/mL/mg. For the same compound, the Cmax/Dose in series [1] (p.o., 3.0 mg/kg (title; dose row prints 10)) is 79.2 ± 24.4 kg·ng/mL/mg; in series [1] (s.c., 0.3 mg/kg), 101 ± 40.7 kg·ng/mL/mg; in series [3] (p.o., 10 mg/kg), 70.4 ± 12.8 kg·ng/mL/mg. Moreover, the AUC(0-inf) in series [1] (rat, plasma, iv, 0.3 mg/kg) turned out to be 117 ± 11.5 ng·h/mL. This compound also yielded a C0 in series [1] (rat, plasma, iv, 0.3 mg/kg) of 76.5 ± 7.49 ng/mL. The “head twitch frequency compared to vehicle control” value in series [2] is “dose dependent increase in head twitch frequency”.
